The numbers were not newly measured in article PMC4621754, “Parasitic diarrheal disease: drug development and targets” (Frontiers in Microbiology, 2015), which cites them from elsewhere.

Like-named read-outs stand apart in the source and are kept apart here.

One data set concerns I. belli. To be noted: for cure of I. belli induced diarrhea: ref Trier et al., 1974, Syrkis et al., 1975, Butler and De Boer, 1981, Weiss et al.; for cure of diarrheal disease caused by I. belli: Ebrahimzadeh and Bottone, 1996.
Setting [1] is: ref Navarrete-Vazquez et al., 2003.
[2] abbreviates: ref Hernández-Nunez et al., 2009.
Where [3] appears, read: HM1:IMSS strain, ref Duque-Montaño et al., 2013.
Setting [4] is: in vitro, ref Torres-Gomez et al., 2008b.
The mark [5] stands for this setting: in vitro, ref Hernández-Nunez et al., 2009.
[6] abbreviates: HM1: IMSS strain, ref Wani et al., 2012b.

As to `CCCSc1ccc2nc(C(F)(F)F)n(C)c2c1` [Compound 63, 1-methyl-6-(propylthio)-2-(trifluoromethyl)-1H-benzimidazole], the IC50 with G. lamblia (setting [1]) is 1400 nM. Turning to Ni(Fctpy)2][PF6]2 [Compound 22], the “activity against E. histolytica” value with E. histolytica (ref Juneja et al., 2014) was “most promising activity”.

Regarding `Cc1ccc(S(=O)(=O)n2cc([N+](=O)[O-])nc2C)cc1` [Compound 43, 2-methyl-1-[(4-methylphenyl)sulfonyl]-4-nitro-1H-imidazole], the IC50 with E. histolytica (setting [2]) is 3550 nM. `CCCSc1ccc2[nH]c(C(F)(F)F)nc2c1` [Compound 64, 5(6)-(propylthio) -2-(trifluoromethyl)-1H-benzimidazole]: in the data set on G. lamblia (setting [1]), the IC50 was 1520 nM. `CCOC(=O)c1ccc2c(c1)[n+]([O-])c(C(N)=O)c(C)[n+]2[O-]` [Compound 38, ethyl 2-amide-3-methylquinoxaline-7-carboxylate 1,4-di-N-oxide]: the concentration for half-maximal inhibition (IC50) in the data set with E. histolytica (setting [3]) was 1470 nM. Take `COc1ccc2[nH]c(-c3ccc(OCCCCCOc4ccc(-c5nc6cc(OC)ccc6[nH]5)cc4)cc3)nc2c1` [Compound 41, 1,5-bis[4-(5-methoxy-1H-benzimidazole-2-yl)phenoxy]pentane]: the IC50 in the data set on E. histolytica (setting [4]) is 109 nM. For the molecule `Cn1c(C(F)(F)F)nc2cc(C(=O)c3ccccc3)ccc21` [Compound 65, 5-benzoyl-1-methyl-2-(trifluoromethyl)-1H-benzimidazole], the IC50 with G. lamblia (setting [1]) is 1100 nM.

For the molecule `O=[N+]([O-])c1cccc(/C=N/Nc2ccccc2)c1` [Compound 44, (E)-1-(3-nitrobenzylidene)-2-phenylhydrazine], the IC50 in the data set with E. histolytica (in vitro, HM1:IMSS strain, ref Toledano-Magana et al., 2015) is 840 nM. With `O=S(=O)(Nc1nc(-c2ccccc2)cc(-c2ccccc2Cl)n1)c1ccccc1` [Compound 28, N-[4-(2-chlorophenyl)-6-phenylpyrimidin-2-yl]-benzenesulphonamide], the IC50 in the data set on E. histolytica (in vitro, ref Siddiqui and Azam, 2014) was 440 nM.

`CCS(=O)(=O)CCn1c([N+](=O)[O-])cnc1C` [tinidazole]: in the data set with I. belli (1988), the “cure of I. belli induced diarrhea” value was “cure the I. belli induced diarrhea but to lesser extent”. As for `COc1cc(NC(c2coc3ccccc3c2=O)c2nnnn2C2CCCCC2)cc(OC)c1OC` (stereo not shown) [Compound 67, 3-((1-cyclohexyl-1H-tetrazol-5-yl)((3,4,5-trimethoxyphenyl)amino)methyl)-4H-chromen-4-one], in the data set with G. lamblia (ref Cano et al., 2014), the IC50 is 171000 nM. Regarding `CCOC(=O)C(=O)Nc1ncc([N+](=O)[O-])s1` [Compound 69, ethyl [(5-nitro-1,3-thiazol-2-yl)amino](oxo)acetate], the IC50 in the data set with G. intestinalis (ref Nava-Zuazo et al., 2014) was 6410 nM. For `Cc1nc([N+](=O)[O-])cn1CC(=O)Nc1ccc(C#N)cc1` [Compound 72, N-(4-cyanophenyl)-2-(2-methyl-4-nitro-1H-imidazol-1-yl) acetamide], the IC50 in the data set on G. lamblia (setting [5]) is 11200 nM. `Nc1ccc(S(=O)(=O)Nc2ncccn2)cc1` [sulfadiazine]: the “cure of diarrheal disease caused by I. belli” value in the data set with I. belli (ref Ferguson et al., 1980) is “cure the diarrheal disease”. Consider `CCN(CC)CCCC(C)Nc1c2ccc(Cl)cc2nc2ccc(OC)cc12` (stereo not shown) [quinacrine], for which the “cure of I. belli induced diarrhea” value in the data set on I. belli (1988) is “cure the I. belli induced diarrhea but to lesser extent”.

For the molecule `O=[N+]([O-])c1ccc(S(=O)(=O)Nc2nc(NS(=O)(=O)c3ccc([N+](=O)[O-])cc3)nc(-c3ccc4c(c3)OCO4)n2)cc1` [Compound 27, N, N^∕-6-(1,3-benzodioxol-5-yl)-(1,3,5-triazine-2,4-diyl)-bis-4-nitrobenzene sulphonamide], the IC50 in the data set with E. histolytica (ref Wani et al., 2012a) is 1020 nM. `COc1ccc(NC(=O)C(N)CCSC(F)(F)F)cc1OC` (stereo not shown) [Compound 40, 3,4-dimethoxyanilide trifluoromethionine]: the IC50 with E. histolytica (in vitro, ref Sato et al., 2010) was 1190 nM. Take `CC(=NNC(=S)NCc1ccc(C)cc1)c1c(O)ccc2ccc(=O)oc12` [Compound 31, 7-hydroxy-8-acetylcoumarin-N(4,4)methylbenzyl thiosemicarbazone]: the IC50 in the data set on E. histolytica (ref Iqbal et al., 2009) is 1060 nM. cyclosporine A [reference compound]: the “proliferation of E. histolytica” value in the data set on E. histolytica (ref Carrero et al., 2004) is on record as “inhibits proliferation”. Consider `O=[N+]([O-])c1ccc(NC(=S)N2N=C(c3ccccc3)CC2c2ccc(C3CC(c4ccccc4)=NN3C(=S)Nc3ccc([N+](=O)[O-])cc3)cc2)cc1` (stereo not shown) [Compound 32], for which, in the data set with E. histolytica (ref Bhat et al., 2009a), the half-maximal inhibitory concentration (IC50) is 420 nM.

As for `Cc1nc([N+](=O)[O-])cn1S(=O)(=O)c1ccc([N+](=O)[O-])cc1` [Compound 73, 2-methyl-4-nitro-1-[(4-nitrophenyl)sulfonyl]-1H-imidazole], the IC50 with G. lamblia (setting [5]) is 7500 nM. Turning to `CC(C)c1ccccc1C1CC(c2ccccc2)=NN1c1nc2nc3ccccc3nc2s1` (stereo not shown) [Compound 33, 2-{5-[2-(methylethyl)phenyl]-3-phenyl-2-pyrazolinyl}-1,3-thiazolino[5,4-b]quinoxaline], in the data set with E. histolytica (HM1:IMSS strain, ref Budakoti et al., 2009), the 50% inhibitory concentration (IC50) was 170 nM. `Cc1nc([N+](=O)[O-])cn1CC(=O)NCc1ccccc1` [Compound 42, N-benzyl-2-(2-methyl-4-nitro-1H-imidazol-1-yl)acetamide]: in the data set on E. histolytica (setting [2]), the IC50 is 3960 nM. With `Cn1c(C(F)(F)F)nc2ccc(C(=O)c3ccccc3)cc21` [Compound 66, 6-benzoyl-1-methyl-2-(trifluoromethyl)-1H-benzimidazole], the IC50 in the data set with G. lamblia (setting [1]) was 1280 nM. Turning to “1,1^∕-(10,15-diphenyl-21,23-dithiaporphine-5,20-diyl)bis[2-{[methyl(phenylmethyl)amino]methyl}-ferrocene] [Compound 34]”, in the data set on E. histolytica (in vitro, HM1:IMSS strain, ref Bhat et al., 2009b), the IC50 was 590 nM. On to `Cc1cccc(NC(=S)NN=Cc2ccc(-c3c4nc(c(-c5ccccc5)c5ccc([nH]5)c(-c5ccccc5)c5nc(c(-c6ccccc6)c6ccc3[nH]6)C=C5)C=C4)cc2)c1` [Compound 30, 4-(3-methylphenyl)-1-{[4-(10,15,20-triphenylporphyrin-5-yl)phenyl]methylidene}thiosemicarbazide], for which the IC50 in the data set with E. histolytica (ref Bhat et al., 2008) was 538 nM. Regarding `CC[C@H]1OC(=O)[C@H](C)[C@@H](O[C@H]2C[C@@](C)(OC)[C@@H](O)[C@H](C)O2)[C@H](C)[C@@H](O[C@@H]2O[C@H](C)C[C@H](N(C)C)[C@H]2O)[C@](C)(O)C[C@@H](C)/C(=N\OCOCCOC)[C@H](C)[C@@H](O)[C@]1(C)O` [roxithromycin], the “efficacy in chronic I. belli induced diarrhea” value in the data set with I. belli (when TMP-SMX or pyrimethamine treatments become inadequate, ref Musey et al., 1988) was “effective”.

For the molecule sirimamycin, the “efficacy in I. belli intestinal infection” value in the data set on I. belli (when pyrimethamine-sulfadoxine fails, AIDS patients, ref Ferguson et al., 1980) is on record as “effective”. Regarding `COc1ccc(-c2nnnn2CC(=O)N2N=C(c3ccccc3)CC2c2ccc(OC)cc2)cc1` (stereo not shown) [Compound 26, 1-(4,5-dihydro-5-(4-methoxyphenyl)-3-phenylpyrazol-1-yl)-2-(5-(4-methoxyphenyl)-1H-tetrazol-1-yl)ethanone], the IC50 in the data set with E. histolytica (setting [6]) was 1160 nM. As for `Cn1c(C(F)(F)F)nc2cc(Cl)ccc21` [Compound 60, 5-chloro-1-methyl-2-(trifluoromethyl)benzimidazole], in the data set on G. lamblia (in vitro, ref Gabriel Navarrete-Vaa Zquez et al., 2001), the IC50 was 42 nM. Regarding `Cc1ccc(/C=C/C(=O)c2ccc(C)cc2)cc1` [Compound 25, (2E)-1,3-bis(4-methylphenyl)prop-2-en-1-one], in the data set with E. histolytica (setting [6]), the half-inhibitory concentration (IC50) was 4190 nM. With `CC(=O)Oc1ccccc1C(=O)Nc1nc2ccc([N+](=O)[O-])cc2s1` [Compound 39, 2-{[(6-Nitro-1,3-benzothiazol-2-yl)amino]carbonyl}phenyl acetate], the half-maximal inhibitory concentration (IC50) is 297 nM in the data set on E. histolytica (ref Navarrete-Vazquez et al., 2011) and 3520 nM in the data set with G. intestinalis (in vitro, ref Navarrete-Vazquez et al., 2011). Regarding `O=C1OCCN1/N=C/c1ccc([N+](=O)[O-])o1` [furazolidone, Furazolidone], the “cure of I. belli induced diarrhea” value in the data set on I. belli (1988) is reported as “cure the I. belli induced diarrhea but to lesser extent”. As to `CCc1nc(N)nc(N)c1-c1ccc(Cl)cc1` [pyrimethamine], the “cure of diarrheal disease caused by I. belli” value with I. belli (ref Ferguson et al., 1980) is given as “cure the diarrheal disease”. As for `COc1ccc(C2ON=C(c3ccc([N+](=O)[O-])s3)O2)cc1` (stereo not shown) [Compound 29, 5-(4-methoxy-phenyl)-3-(5-nitro-2-thienyl)-1,4,2-dioxazole], the IC50 with E. histolytica (in vitro, ref Irfan et al., 2010) was 1600 nM. For `COC(=O)c1ccc2c(c1)[n+]([O-])c(C(C)=O)c(C)[n+]2[O-]` [Compound 37, methyl 2-acetyl-3-methyl-quinoxaline-7-carboxylate 1,4-di-N-oxide], the IC50 with E. histolytica (setting [3]) is 1410 nM. For `COC(=O)Nc1ncc([N+](=O)[O-])s1` [Compound 68, methyl 5-nitro-1,3-thiazol-2-ylcarbamate], the IC50 in the data set on G. intestinalis (ref Nava-Zuazo et al., 2014) is 10 nM. As for `COc1ccc(Nc2c(C#N)cnc3sccc23)cc1` [Compound 58, 4-(4-methoxyphenylamino)thieno[2,3-b]pyridine-5-carbonitrile], the giardicidal effect result in the data set with G. lamblia (ref Bernardino et al., 2006) is “excellent giardicidal effect”. `COc1ccc(C(=O)/C=C/c2ccccc2F)cc1` [Compound 61, (E)-3-(6-flourophenyl)-1-(4-methoxyphenyl)prop-2-en 1-one]: the concentration for half-maximal inhibition (IC50) in the data set on G. lamblia (ref Montes-Avila et al., 2009) was 12700 nM. Regarding `COc1cc(-c2nc3cc(C)ccc3[nH]2)ccc1OCCCCCOc1ccc(-c2nc3cc(C)ccc3[nH]2)cc1OC` [Compound 59, 1,5-bis[2-methoxy-4-(5-methyl-1H-benzimidazole-2-yl)phenoxy] pentane], in the data set with G. lamblia (setting [4]), the IC50 was 372 nM. In addition, in the data set with G. lamblia (ref Torres-Gomez et al., 2008a), the half-inhibitory concentration (IC50) is 372 nM, the “folds more potent than metronidazole” value was 3 folds and the “folds more potent than pentamidine” value is listed as 9 folds. Further, in the data set on G. lamblia (ref Torres-Gomez et al., 2008b), the “fold more activity than metronidazole” value was 3 fold and the “fold more activity than pentamidine” value is given as 9 fold.

For orientation: IC50 means the concentration that gives 50% inhibition.
